Read-outs that look alike come from different tables or passages of the source.
Key:
Format in all cases: in vivo
[1] = system: giant foxtail (Setaria faberii); experiment: Test A pre-/postemergence plant response; settings: Setaria faberi, 240 h, read-out: Plant response rating, Foxtail, Giant; for pest or weed control at 125 g/ha: 125 g ai/ha; for pest or weed control at 500 g/ha: 500 g ai/ha, approx. ten days
Outline: (§1)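 Each species was treated preemergence via directed soil spray and postemergence at the one- to two-leaf stage, with compounds formulated in a non-phytotoxic solvent plus surfactant. Visual injury relative to untreated controls was rated after about ten days on a 0–100 scale.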

[2] = system: velvetleaf (Abutilon theophrasti); experiment: Test A pre-/postemergence plant response; settings: Abutilon theophrasti, 240 h, read-out: Plant response rating, Velvetleaf; for pest or weed control at 125 g/ha: 125 g ai/ha; for pest or weed control at 500 g/ha: 500 g ai/ha, approx. ten days
Outline: as §1

[3] = system: wheat (Triticum aestivum); experiment: Test A pre-/postemergence plant response; settings: Triticum aestivum, 240 h, read-out: Plant response rating, Wheat; for plant injury at 125 g/ha: 125 g ai/ha; for plant injury at 500 g/ha: 500 g ai/ha, approx. ten days
Outline: as §1

[4] = system: morningglory (Ipomoea spp.); experiment: Test A pre-/postemergence plant response; settings: Ipomoea, 240 h, read-out: Plant response rating, Morningglory; for pest or weed control at 125 g/ha: 125 g ai/ha; for pest or weed control at 500 g/ha: 500 g ai/ha, approx. ten days
Outline: as §1

[5] = system: large crabgrass (Digitaria sanguinalis); experiment: Test A pre-/postemergence plant response; settings: Digitaria sanguinalis, 240 h, read-out: Plant response rating, Crabgrass, Large; for pest or weed control at 125 g/ha: 125 g ai/ha; for pest or weed control at 500 g/ha: 500 g ai/ha, approx. ten days
Outline: as §1

corn (Zea mays) = experiment: Test A pre-/postemergence plant response; settings: Zea mays, 240 h; for Corn plant response rating (crop injury, 0 = no effect, 100 = complete kill) at 125 g/ha: 125 g ai/ha; for Corn plant response rating (crop injury, 0 = no effect, 100 = complete kill) at 500 g/ha: 500 g ai/ha, approx. ten days
Outline: as §1

[6] = system: windgrass (Apera spica-venti); experiment: Test B postemergence plant response
Outline: (§2)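 Visual ratings from 0 (no effect) to 100 (complete control), made against controls 13–15 days after treatment, kept in a greenhouse. Compounds were applied postemergence to potted plants at the 1- to 4-leaf stage (2–18 cm).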

[7] = system: chickweed (Stellaria media); experiment: Test B postemergence plant response
Outline: as §2

[8] = system: canarygrass (Phalaris minor); experiment: Test B postemergence plant response
Outline: as §2

[9] = system: winter barley (Hordeum vulgare); experiment: Test B postemergence plant response
Outline: as §2

[10] = post-emergence, Postemergence, 0 to 100 scale where 0 is no effect and 100 is complete control
[11] = post-emergence, Postemergence, 0 to 100 scale, 0 = no effect, 100 = complete control
[12] = pre-emergence, Preemergence, 0 to 100 scale, 0 = no effect, 100 = complete control
[13] = pre-emergence, Preemergence, visual injury, 0 to 100 scale (0 no effect, 100 complete control)
[14] = 62 g ai/ha, postemergence, 0 is no effect, 100 is complete control, 13 to 15 days

`COCCn1c(-c2ccsc2)ncc(C(=O)C2=C(O)CCCC2=O)c1=O` [Compound 97, 5-[(2-hydroxy-6-oxo-1-cyclohexen-1-yl)carbonyl]-3-(2-methoxyethyl)-2-(3-thienyl)-4(3H)-pyrimidinone] gave a pest or weed control at 125 g/ha [1, 10] of 60%, a pest or weed control at 500 g/ha [1, 11] of 80% and a pest or weed control at 125 g/ha [1, 12] of 60%. For the same molecule, the pest or weed control at 500 g/ha [1, 13] was 90%, the pest or weed control at 125 g/ha [2, 10] was 100% and the pest or weed control at 500 g/ha [2, 11] was 100%. The pest or weed control at 125 g/ha [2, 12] was 100%, the pest or weed control at 500 g/ha [2, 13] was 100% and the plant injury at 125 g/ha [3, 10] was 0%. It also gave a plant injury at 500 g/ha [3, 11] of 20%, a plant injury at 125 g/ha [3, 12] of 0% and a plant injury at 500 g/ha [3, 13] of 0%. For the same molecule, the pest or weed control at 125 g/ha [4, 10] was 100%, the pest or weed control at 500 g/ha [4, 11] was 100% and the pest or weed control at 125 g/ha [4, 12] was 70%. For the same molecule, the pest or weed control at 500 g/ha [4, 13] was 80%, the pest or weed control at 125 g/ha [5, 10] was 80% and the pest or weed control at 500 g/ha [5, 11] was 100%. It also gave a pest or weed control at 125 g/ha [5, 12] of 100%, a pest or weed control at 500 g/ha [5, 13] of 100% and a Corn plant response rating (crop injury, 0 = no effect, 100 = complete kill) at 125 g/ha (corn (Zea mays); [10]) of 50%. The Corn plant response rating (crop injury, 0 = no effect, 100 = complete kill) at 500 g/ha (corn (Zea mays); [11]) was 80%, the Corn plant response rating (crop injury, 0 = no effect, 100 = complete kill) at 125 g/ha (corn (Zea mays); [12]) was 0% and the Corn plant response rating (crop injury, 0 = no effect, 100 = complete kill) at 500 g/ha (corn (Zea mays); [13]) was 0%. The “Windgrass plant response rating (0 to 100 scale)” value [6, 14] was 50, the pest or weed control at 31 g/ha ([6]; Apera spica-venti, post-emergence, 360 h, 31 g ai/ha, postemergence, scale 0 to 100, 0 is no effect, 100 is complete control, read-out: Plant response rating, Windgrass) was 5% and the pest or weed control at 250 g/ha ([6]; Apera spica-venti, post-emergence, 360 h, Postemergence, 250 g ai/ha, scale 0 to 100 (0 no effect, 100 complete control), read-out: Plant response rating, Windgrass) was 85%. The “Chickweed plant response rating (0 to 100 scale)” value [7, 14] was 100, the pest or weed control at 31 g/ha ([7]; Stellaria media, post-emergence, 360 h, 31 g ai/ha, postemergence, scale 0 to 100, 0 is no effect, 100 is complete control, read-out: Plant response rating, Chickweed) was 95% and the pest or weed control at 125 g/ha ([7]; Stellaria media, post-emergence, 360 h, Postemergence, 125 g ai/ha, visual rating after 13 to 15 days, scale 0 (no effect) to 100 (complete control)) was 100%. For the same molecule, the pest or weed control at 250 g/ha ([7]; Stellaria media, post-emergence, 360 h, Postemergence, 250 g ai/ha, scale 0 to 100 (0 no effect, 100 complete control), read-out: Plant response rating, Chickweed) was 100%, the “Canarygrass plant response rating (0 to 100 scale)” value [8, 14] was 10 and the pest or weed control at 31 g/ha ([8]; Phalaris minor, post-emergence, 360 h, 31 g ai/ha, postemergence, scale 0 to 100, 0 is no effect, 100 is complete control, read-out: Plant response rating, Canarygrass) was 0%. The pest or weed control at 125 g/ha ([8]; Phalaris minor, post-emergence, 360 h, Postemergence, 125 g ai/ha, visual rating after 13 to 15 days, scale 0 (no effect) to 100 (complete control)) was 10%, the pest or weed control at 250 g/ha ([8]; Phalaris minor, post-emergence, 360 h, Postemergence, 250 g ai/ha, scale 0 to 100 (0 no effect, 100 complete control), read-out: Plant response rating, Canarygrass) was 30% and the “Barley plant response rating (0 to 100 scale)” value [9, 14] was 0. The plant injury at 31 g/ha ([9]; Hordeum vulgare, post-emergence, 31 g ai/ha, postemergence, scale 0 to 100, 0 is no effect, 100 is complete control, read-out: Plant response rating, Barley) was 0%, the plant injury at 125 g/ha ([9]; Hordeum vulgare, post-emergence, Postemergence, 125 g ai/ha, visual rating after 13 to 15 days, scale 0 (no effect) to 100 (complete control)) was 0% and the plant injury at 250 g/ha ([9]; Hordeum vulgare, post-emergence, Postemergence, 250 g ai/ha, scale 0 to 100 (0 no effect, 100 complete control), read-out: Plant response rating, Barley) was 5%.
